Experimental data from patent US20100204470A1, “METHOD FOR SALT PREPARATION” (Sandoz AG, priority 2006, published 2010).
Where a name gives a salt, the structure may show the parent alone. Values belong to the compound of their own block, whether it stands above or below them.

Assays:
[1] = Storage in a dessicator at a humidity level of 33% (hygroscopicity, conversion to hydrous form); assay type: physicochemical
Text: The present invention also relates to a novel anhydrous hydrochloride salt of Moxifloxacin, herein called form IV. […] More particular, the invention relates to form IV characterized by an X-ray powder diffraction pattern with peaks at about 10.0, 13.2, 15.3, 17.2 and 24.4 degrees 2 theta. The invention also relates to form IV characterized by infrared absorption bands at about 2704, 1720, 1434, 1312 and 1273 cm^−1.
The new anhydrous form IV may preferably be prepared by desolvating Moxifloxacin hydrochloride methylene dichloride solvate by drying in vacuum at about 100° C. […] The invention also relates to pharmaceutical compositions comprising form IV.

[2] = General solubility / stability of the crystalline salt; assay type: physicochemical; details: qualitative statement
[3] = anhydrous vs monohydrate hydrochloride; disclosed in WO 95/07902; cited from earlier work
[4] = compared with monohydrate salt form; disclosed in WO 95/07902; cited from earlier work
[5] = Stability of solvate under air drying conditions (desolvation)
[6] = dessicator, humidity level 33%, 48 hours

Compound: COc1c(C)c2c(c(O)c1C/C=C(\C)CCC(=O)OCCN1CCOCC1)C(=O)OC2 [mycophenolate mofetil hydrochloride]
increase in solubility over the monohydrate salt form [3]: two-fold
stability characteristics [4]: possessing the stability characteristics of the monohydrate salt form

Compound: Moxifloxacine Hydrochloride Methylene Dichloride Solvate
hygroscopicity (water uptake) ([1]; 1 day at 33% relative humidity): not hygroscopic
stability / desolvation under air drying conditions [5]: stable and does not desolvate

Compound: Raloxifene Hydrochloride THF hemisolvate
stability / desolvation under air drying conditions [5]: stable and does not desolvate

Continued, values first:

moisture content after humidity storage ([1]; after 48 hours at humidity level 33%): 0.6%
hygroscopicity relative to other anhydrous forms ([1]; compared with anhydrous form II (US 5849 752, Bayer) and anhydrous form B (WO 2005/054240, Chemi Spa)): lower hygroscopicity
XRPD pattern after humidity storage [1, 6]: no alteration
conversion to a hydrous form [1, 6]: does not convert to a hydrous form
moisture content before humidity storage ([1]; initial value): 0.5%
Compound: COc1c(N2C[C@@H]3CCCN[C@@H]3C2)c(F)cc2c(=O)c(C(=O)O)cn(C3CC3)c12.Cl [Moxifloxacine Hydrochloride Anhydrous Form IV]

solubility and/or stability [2]: good solubility and/or stability
Compound: COc1c(N2C[C@@H]3CCCN[C@@H]3C2)c(F)cc2c(=O)c(C(=O)O)cn(C3CC3)c12 [Moxifloxacine hydrochloride]
